Assay results reported in US20260274829A1, “NEW E3 UBIQUITIN LIGASE LIGAND, PROTEIN DEGRADATION AGENT AND USE THEREOF” (GLUETACS THERAPEUTICS (SHANGHAI) CO., LTD., priority 2023, published 2026).

Legend:
MM.1S (MM1S) = test: CCK-8 tumor cell proliferation IC50, MM.1S; conditions: MM.1S cells, compounds designed based on the IRAK4 inhibitors, read-out: Inhibitory activity (IC50, nM) on tumor cell proliferation, MM.1S
Procedure: (§1) The tumor cells used herein were cultured in a cell culture medium listed in table A1 at 37° C. in an incubator with 5% CO2. Prior to experimentation, all cell lines used were correctly identified by STR profiling, and tested negative for mycoplasma contamination using a mycoplasma detection kit through routine screenings.
(§2) IC50 values of the compounds of the present disclosure (including the compounds in Table 1, and compounds of examples) were measured using the Meilun Cell Counting Kit-8 kit from Dalian Meilun Biotech Co., Ltd. Assay details are as follows: tumor cells were seeded in a 96-well plate at a density listed in Table A2. After 24 h, 100 μL of the inoculated cells were treated with 0.5 μL of the compounds of the present disclosure (including the compounds in Tables 1 and 2, and compounds of examples) at 10 different successively decreasing concentrations (starting at the highest concentration of 1 μM; 5-fold serial dilutions). After the cells were treated with the compounds of the present disclosure for a period of time, the cell viability detection reagent was added to the culture medium for cell viability assessment according to the instructions provided with the CCK-8 kit. […] The growth inhibition of the compounds of the present disclosure on cells was plotted by Prism Graphpad software, and the IC50 values of the compounds of the present disclosure were calculated therefrom.

[1] = tested on: MGC-803 (MGC80-3, MGC803); test: CCK-8 tumor cell proliferation IC50, MGC-803; set-up: species or system human; conditions: MGC803 cells, compounds designed based on the IRAK4 inhibitors, read-out: Inhibitory activity (IC50, nM) on tumor cell proliferation, MGC803
Procedure: as §1, §2

H1299 = test: CCK-8 tumor cell proliferation IC50, H1299; set-up: species or system human; conditions: H1299 cells, compounds designed based on the IRAK4 inhibitors, read-out: Inhibitory activity (IC50, nM) on tumor cell proliferation, H1299
Procedure: as §1, §2

IKZF3 = biological target: T1, IKZF3 (Homo sapiens, UniProt Q96SW2+Q9UKT9); test: Western blot degradation of IKZF3 in hPBMC; assay type: cell-based
T1 construct: endogenous in cells; host or cells: hPBMC
T1 sequence (Q9UKT9 whole entry): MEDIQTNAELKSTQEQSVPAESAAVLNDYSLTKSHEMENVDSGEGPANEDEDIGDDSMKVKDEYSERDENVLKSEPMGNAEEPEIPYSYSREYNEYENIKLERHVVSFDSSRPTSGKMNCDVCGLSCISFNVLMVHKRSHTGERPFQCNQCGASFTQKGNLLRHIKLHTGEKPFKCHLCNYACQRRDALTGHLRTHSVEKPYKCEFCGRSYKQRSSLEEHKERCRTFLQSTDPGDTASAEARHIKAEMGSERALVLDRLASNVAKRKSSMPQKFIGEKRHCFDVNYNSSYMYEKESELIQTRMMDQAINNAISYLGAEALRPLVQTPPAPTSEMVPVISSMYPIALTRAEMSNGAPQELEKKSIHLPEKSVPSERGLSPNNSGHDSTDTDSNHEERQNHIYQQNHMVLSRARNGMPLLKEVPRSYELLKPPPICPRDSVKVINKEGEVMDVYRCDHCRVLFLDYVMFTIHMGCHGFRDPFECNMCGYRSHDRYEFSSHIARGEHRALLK
T1 sequence (Q96SW2 whole entry): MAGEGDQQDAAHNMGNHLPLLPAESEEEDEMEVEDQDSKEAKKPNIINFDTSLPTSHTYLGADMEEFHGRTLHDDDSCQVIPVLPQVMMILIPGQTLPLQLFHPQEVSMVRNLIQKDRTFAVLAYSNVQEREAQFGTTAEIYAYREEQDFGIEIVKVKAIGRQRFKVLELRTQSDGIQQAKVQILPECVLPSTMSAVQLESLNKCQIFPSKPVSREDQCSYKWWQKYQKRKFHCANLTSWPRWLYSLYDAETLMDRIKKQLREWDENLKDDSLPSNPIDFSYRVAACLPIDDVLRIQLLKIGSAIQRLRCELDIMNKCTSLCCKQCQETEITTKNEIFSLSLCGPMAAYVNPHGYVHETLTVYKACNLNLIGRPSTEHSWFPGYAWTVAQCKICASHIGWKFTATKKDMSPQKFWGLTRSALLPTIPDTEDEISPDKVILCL
T1 sequence (Q16531 whole entry partner): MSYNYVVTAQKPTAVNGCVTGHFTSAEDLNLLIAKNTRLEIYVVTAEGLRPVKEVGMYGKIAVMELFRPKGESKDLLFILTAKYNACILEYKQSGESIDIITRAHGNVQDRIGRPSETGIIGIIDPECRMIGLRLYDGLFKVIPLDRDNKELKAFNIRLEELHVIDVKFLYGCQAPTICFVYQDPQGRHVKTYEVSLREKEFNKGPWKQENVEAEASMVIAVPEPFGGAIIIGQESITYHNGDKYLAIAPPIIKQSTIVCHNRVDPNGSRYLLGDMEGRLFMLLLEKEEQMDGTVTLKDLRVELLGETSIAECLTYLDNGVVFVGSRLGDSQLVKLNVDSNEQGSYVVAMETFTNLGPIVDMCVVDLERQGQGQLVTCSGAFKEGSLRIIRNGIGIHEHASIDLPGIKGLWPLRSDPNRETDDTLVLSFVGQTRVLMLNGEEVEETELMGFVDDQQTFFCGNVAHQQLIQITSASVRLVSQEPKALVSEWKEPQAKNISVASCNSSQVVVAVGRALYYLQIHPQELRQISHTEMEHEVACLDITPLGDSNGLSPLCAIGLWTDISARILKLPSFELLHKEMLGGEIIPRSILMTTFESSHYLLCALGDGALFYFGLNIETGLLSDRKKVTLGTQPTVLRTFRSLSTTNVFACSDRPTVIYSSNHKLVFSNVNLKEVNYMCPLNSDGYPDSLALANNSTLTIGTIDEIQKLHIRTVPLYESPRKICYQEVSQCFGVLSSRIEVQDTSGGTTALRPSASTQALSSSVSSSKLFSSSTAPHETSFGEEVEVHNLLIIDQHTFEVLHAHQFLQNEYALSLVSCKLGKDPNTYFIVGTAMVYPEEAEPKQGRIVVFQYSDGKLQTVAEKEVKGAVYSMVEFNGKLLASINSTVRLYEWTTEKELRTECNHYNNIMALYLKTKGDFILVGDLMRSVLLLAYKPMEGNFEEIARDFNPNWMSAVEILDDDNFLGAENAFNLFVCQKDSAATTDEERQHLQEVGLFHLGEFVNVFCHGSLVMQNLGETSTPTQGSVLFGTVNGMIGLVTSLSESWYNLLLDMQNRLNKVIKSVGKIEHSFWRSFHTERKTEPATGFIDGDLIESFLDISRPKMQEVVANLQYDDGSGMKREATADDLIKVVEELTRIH
Summary of the method: (§3)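 Percent target remaining and DC50 derive from grayscale of Western bands in degrader-treated hPBMC, normalized to an internal control protein and compared with DMSO samples. Gels were SDS-PAGE, transferred onto nitrocellulose and blocked one hour at room temperature.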

CK1a = biological target: T2, CK1a (Homo sapiens, UniProt P48729+Q96SW2); test: Western blot degradation of CK1a in hPBMC; assay type: cell-based
T2 construct: endogenous in cells; host or cells: hPBMC
T2 sequence (P48729 whole entry): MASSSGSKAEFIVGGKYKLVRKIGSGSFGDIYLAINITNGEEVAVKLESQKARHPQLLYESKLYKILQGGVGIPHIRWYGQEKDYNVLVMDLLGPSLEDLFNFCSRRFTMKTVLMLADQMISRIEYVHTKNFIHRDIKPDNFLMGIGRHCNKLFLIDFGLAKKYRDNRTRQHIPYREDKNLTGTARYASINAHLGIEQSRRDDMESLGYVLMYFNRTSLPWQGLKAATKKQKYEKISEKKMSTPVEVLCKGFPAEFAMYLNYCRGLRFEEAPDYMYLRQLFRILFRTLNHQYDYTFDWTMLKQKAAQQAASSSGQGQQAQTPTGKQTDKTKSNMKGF
T2 sequence (Q96SW2 whole entry): as the sequence (Q96SW2 whole entry) above
T2 sequence (Q16531 whole entry partner): as the sequence (Q16531 whole entry partner) above
Summary of the method: as §3

IKZF1 = biological target: T3, IKZF1 (Homo sapiens, UniProt Q13422+Q96SW2); test: Western blot degradation of IKZF1 in hPBMC; assay type: cell-based
T3 construct: endogenous in cells; host or cells: hPBMC
T3 sequence (Q13422 whole entry): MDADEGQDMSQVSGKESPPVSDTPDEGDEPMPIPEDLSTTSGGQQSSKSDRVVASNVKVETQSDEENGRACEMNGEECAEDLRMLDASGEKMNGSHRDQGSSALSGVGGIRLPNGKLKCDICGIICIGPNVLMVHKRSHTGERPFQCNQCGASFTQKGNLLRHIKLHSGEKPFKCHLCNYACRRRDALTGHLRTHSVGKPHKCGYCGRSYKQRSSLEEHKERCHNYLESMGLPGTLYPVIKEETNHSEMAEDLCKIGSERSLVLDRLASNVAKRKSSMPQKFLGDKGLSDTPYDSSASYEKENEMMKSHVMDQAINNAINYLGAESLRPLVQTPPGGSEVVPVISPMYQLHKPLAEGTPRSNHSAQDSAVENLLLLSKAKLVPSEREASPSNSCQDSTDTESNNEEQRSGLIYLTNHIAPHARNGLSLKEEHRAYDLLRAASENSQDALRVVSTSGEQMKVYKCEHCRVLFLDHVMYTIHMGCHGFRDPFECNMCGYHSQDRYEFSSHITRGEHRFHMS
T3 sequence (Q96SW2 whole entry): as the sequence (Q96SW2 whole entry) above
T3 sequence (Q16531 whole entry partner): as the sequence (Q16531 whole entry partner) above
Summary of the method: as §3

IKZF2 = biological target: T4, IKZF2 (Homo sapiens, UniProt Q96SW2+Q9UKS7); test: Western blot degradation of IKZF2 in hPBMC; assay type: cell-based
T4 construct: endogenous in cells; host or cells: hPBMC
Summary of the method: as §3

GSPT1 = biological target: T5, GSPT1 (Homo sapiens, UniProt P15170+Q96SW2); test: Western blot degradation of GSPT1 in hPBMC; assay type: cell-based
T5 construct: endogenous in cells; host or cells: hPBMC
T5 sequence (P15170 whole entry): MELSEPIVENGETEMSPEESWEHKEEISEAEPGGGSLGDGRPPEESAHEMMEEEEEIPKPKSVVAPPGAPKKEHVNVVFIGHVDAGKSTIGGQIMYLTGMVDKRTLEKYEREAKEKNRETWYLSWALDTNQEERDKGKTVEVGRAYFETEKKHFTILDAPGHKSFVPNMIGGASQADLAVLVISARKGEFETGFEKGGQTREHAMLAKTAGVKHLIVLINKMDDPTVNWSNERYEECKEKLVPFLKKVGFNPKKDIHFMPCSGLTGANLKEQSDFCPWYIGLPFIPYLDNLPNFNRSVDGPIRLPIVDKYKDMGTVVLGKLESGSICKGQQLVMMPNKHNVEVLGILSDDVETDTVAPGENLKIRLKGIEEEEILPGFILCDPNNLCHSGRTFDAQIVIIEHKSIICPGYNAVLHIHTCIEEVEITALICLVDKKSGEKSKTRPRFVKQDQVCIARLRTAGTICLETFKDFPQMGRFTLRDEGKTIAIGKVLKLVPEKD
T5 sequence (Q96SW2 whole entry): as the sequence (Q96SW2 whole entry) above
T5 sequence (Q16531 whole entry partner): as the sequence (Q16531 whole entry partner) above
Summary of the method: as §3

WEE1 = biological target: T6, WEE1 (Homo sapiens, UniProt P30291+Q96SW2); test: Western blot degradation of WEE1 in hPBMC; assay type: cell-based
T6 construct: endogenous in cells; host or cells: hPBMC
T6 sequence (P30291 whole entry): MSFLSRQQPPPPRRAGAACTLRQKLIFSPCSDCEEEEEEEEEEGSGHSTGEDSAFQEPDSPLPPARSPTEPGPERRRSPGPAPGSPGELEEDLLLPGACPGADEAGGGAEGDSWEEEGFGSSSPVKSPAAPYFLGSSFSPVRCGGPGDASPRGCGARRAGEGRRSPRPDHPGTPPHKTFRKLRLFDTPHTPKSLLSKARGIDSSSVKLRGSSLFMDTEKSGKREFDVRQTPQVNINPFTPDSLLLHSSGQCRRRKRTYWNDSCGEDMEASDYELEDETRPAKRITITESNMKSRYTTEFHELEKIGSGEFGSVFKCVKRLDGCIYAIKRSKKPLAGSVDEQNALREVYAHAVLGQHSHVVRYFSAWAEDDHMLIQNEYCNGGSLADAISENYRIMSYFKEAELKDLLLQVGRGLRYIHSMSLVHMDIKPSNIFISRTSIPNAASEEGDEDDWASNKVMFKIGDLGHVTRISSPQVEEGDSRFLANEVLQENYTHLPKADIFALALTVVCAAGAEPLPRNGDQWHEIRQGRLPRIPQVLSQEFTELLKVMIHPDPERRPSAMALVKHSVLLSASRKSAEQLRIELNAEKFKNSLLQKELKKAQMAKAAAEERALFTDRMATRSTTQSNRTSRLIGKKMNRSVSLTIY
T6 sequence (Q96SW2 whole entry): as the sequence (Q96SW2 whole entry) above
T6 sequence (Q16531 whole entry partner): as the sequence (Q16531 whole entry partner) above
Summary of the method: as §3

Row | SMILES | IC50 (MM.1S (MM1S)) [nM] | IC50 [1] [nM] | IC50 (H1299) [nM] | Degradation of substrate protein IKZF3 (substrate protein remaining %) (IKZF3) | Degradation of substrate protein CK1a (substrate protein remaining %) (CK1a) | Degradation of substrate protein IKZF1 (substrate protein remaining %) (IKZF1) | Degradation of substrate protein IKZF2 (substrate protein remaining %) (IKZF2) | Degradation of substrate protein GSPT1 (substrate protein remaining %) (GSPT1) | Degradation of substrate protein WEE1 (substrate protein remaining %) (WEE1)
1 | O=C1CCC(Nc2cccc(CN3CCN(Cc4ccc5c(c4)nc(NC(=O)c4cccc(C(F)(F)F)c4)n5C4CCC(CO)CC4)CC3)c2)C(=O)N1 (centres unmarked) [GT-04976, N-(5-((4-(3-((2,6-dioxopiperidin-3-yl)amino)benzyl)piperazin-1-yl)methyl)-1-((1s,4s)-4-(hydroxymethyl)cyclohexyl)-1H-benzo[d]imidazol-2-yl)-3-(trifluoromethyl)benzamide] | 100 to 500 |  |  |  |  |  |  |  | 
2 | NCc1cncc(N2CCC(=O)NC2=O)n1 [GT-07801, 1-(6-(aminomethyl)pyrazin-2-yl)dihydropyrimidine-2,4(1H,3H)-dione] |  |  |  | B (B is defined as substrate protein remaining % > 80%) | A (A is defined as 0% ≤ substrate protein remaining % ≤ 80%) | B (B is defined as substrate protein remaining % > 80%) | B (B is defined as substrate protein remaining % > 80%) | B (B is defined as substrate protein remaining % > 80%) | B (B is defined as substrate protein remaining % > 80%)
3 | O=C1CCC(Nc2ccc(CO)nn2)C(=O)N1 (centres unmarked) [GT-07803, 3-((6-(hydroxymethyl)pyridazin-3-yl)amino)piperidine-2,6-dione] |  |  |  | A (A is defined as 0% ≤ substrate protein remaining % ≤ 80%) | B (B is defined as substrate protein remaining % > 80%) | A (A is defined as 0% ≤ substrate protein remaining % ≤ 80%) | A (A is defined as 0% ≤ substrate protein remaining % ≤ 80%) | B (B is defined as substrate protein remaining % > 80%) | B (B is defined as substrate protein remaining % > 80%)
4 | O=Cc1ccncc1NC1CCC(=O)NC1=O (centres unmarked) [GT-07804, 3-((2,6-dioxopiperidin-3-yl)amino)isonicotinaldehyde] |  |  |  | A (A is defined as 0% ≤ substrate protein remaining % ≤ 80%) | B (B is defined as substrate protein remaining % > 80%) | B (B is defined as substrate protein remaining % > 80%) | A (A is defined as 0% ≤ substrate protein remaining % ≤ 80%) | B (B is defined as substrate protein remaining % > 80%) | B (B is defined as substrate protein remaining % > 80%)
5 | O=Cc1cncnc1NC1CCC(=O)NC1=O (centres unmarked) [GT-07805, 4-((2,6-dioxopiperidin-3-yl)amino)pyrimidine-5-carbaldehyde] |  |  |  | A (A is defined as 0% ≤ substrate protein remaining % ≤ 80%) | B (B is defined as substrate protein remaining % > 80%) | A (A is defined as 0% ≤ substrate protein remaining % ≤ 80%) | A (A is defined as 0% ≤ substrate protein remaining % ≤ 80%) | B (B is defined as substrate protein remaining % > 80%) | B (B is defined as substrate protein remaining % > 80%)
6 | CC(C)(C)[Si](C)(C)OCc1cnc(NC2CCC(=O)NC2=O)nc1 (centres unmarked) [GT-07808, 3-((5-(((tert-butyldimethylsilyl)oxy)methyl)pyrimidin-2-yl)amino)piperidine-2,6-dione] |  |  |  | A (A is defined as 0% ≤ substrate protein remaining % ≤ 80%) | B (B is defined as substrate protein remaining % > 80%) | A (A is defined as 0% ≤ substrate protein remaining % ≤ 80%) | A (A is defined as 0% ≤ substrate protein remaining % ≤ 80%) | B (B is defined as substrate protein remaining % > 80%) | A (A is defined as 0% ≤ substrate protein remaining % ≤ 80%)
7 | O=C1CCC(Nc2ncc(CO)cn2)C(=O)N1 (centres unmarked) [GT-07809, 3-((5-(hydroxymethyl)pyrimidin-2-yl)amino)piperidine-2,6-dione] |  |  |  | A (A is defined as 0% ≤ substrate protein remaining % ≤ 80%) | B (B is defined as substrate protein remaining % > 80%) | A (A is defined as 0% ≤ substrate protein remaining % ≤ 80%) | A (A is defined as 0% ≤ substrate protein remaining % ≤ 80%) | B (B is defined as substrate protein remaining % > 80%) | A (A is defined as 0% ≤ substrate protein remaining % ≤ 80%)

Further lines, with some results ahead:

Row | IC50 (MM.1S (MM1S)) [nM] | IC50 [1] [nM] | IC50 (H1299) [nM] | SMILES | Degradation of substrate protein IKZF3 (substrate protein remaining %) (IKZF3) | Degradation of substrate protein CK1a (substrate protein remaining %) (CK1a) | Degradation of substrate protein IKZF1 (substrate protein remaining %) (IKZF1) | Degradation of substrate protein IKZF2 (substrate protein remaining %) (IKZF2) | Degradation of substrate protein GSPT1 (substrate protein remaining %) (GSPT1) | Degradation of substrate protein WEE1 (substrate protein remaining %) (WEE1)
8 | 100 to 500 | 500 to 1000 | 500 to 1000 | O=C1CCC(c2ccc(CN3CCN(c4ccc5c(c4)nc(NC(=O)c4cccc(C(F)(F)F)c4)n5C4CCC(CO)CC4)CC3)cc2)C(=O)N1 (centres unmarked) [GT-04981, N-(5-(4-(4-(2,6-dioxopiperidin-3-yl)benzyl)piperazin-1-yl)-1-((1s,4s)-4-(hydroxymethyl)cyclohexyl)-1H-benzo[d]imidazol-2-yl)-3-(trifluoromethyl)benzamide] |  |  |  |  |  | 
9 | 50 to 100 | 100 to 500 | 100 to 500 | O=C1CCN(c2ccc(CN3CCN(c4ccc5c(c4)nc(NC(=O)c4cccc(C(F)(F)F)c4)n5[C@H]4CC[C@@H](CO)CC4)CC3)cc2)C(=O)N1 [GT-04982, N-(5-(4-(4-(2,4-dioxotetrahydropyrimidin-1(2H)-yl)benzyl)piperazin-1-yl)-1-((1s,4s)-4-(hydroxymethyl)cyclohexyl)-1H-benzo[d]imidazol-2-yl)-3-(trifluoromethyl)benzamide] |  |  |  |  |  | 
10 | 100 to 500 | 100 to 500 | 100 to 500 | O=C1CCN(c2ccc(CN3CCN(c4ccc5c(c4)nc(NC(=O)c4cccc(C(F)(F)F)c4)n5[C@H]4CC[C@@H](CO)CC4)CC3)nc2)C(=O)N1 [GT-04986, N-(5-(4-((5-(2,4-dioxotetrahydropyrimidin-1(2H)-yl)pyridin-2-yl)methyl)piperazin-1-yl)-1-((1s,4s)-4-(hydroxymethyl)cyclohexyl)-1H-benzo[d]imidazol-2-yl)-3-(trifluoromethyl)benzamide] |  |  |  |  |  | 
11 | 500 to 1000 |  |  | O=C1CCC(Nc2cccc(CN3CCC(N4CCN(c5ccc6c(c5)nc(NC(=O)c5cccc(C(F)(F)F)c5)n6[C@H]5CC[C@@H](CO)CC5)CC4)CC3)c2)C(=O)N1 (some centres unmarked) [GT-05023, N-(5-(4-(1-(3-((2,6-dioxopiperidin-3-yl)amino)benzyl)piperidin-4-yl)piperazin-1-yl)-1-((1s,4s)-4-(hydroxymethyl)cyclohexyl)-1H-benzo[d]imidazol-2-yl)-3-(trifluoromethyl)benzamide] |  |  |  |  |  | 
12 | > 10000 | 5000 to 10000 | 5000 to 10000 | CC[C@@H]1[C@H](F)C(=O)N[C@@H]1COc1nccc2cc(C(N)=O)c(OC)cc12 [PF06650833, reference compound] |  |  |  |  |  | 
